Laboratory results reported in US8067440B2, “Phosphonium salts derivatives and uses thereof” (Valorisation-Recherche, Limited Partnership, priority 2004, dated 2011).
Structures can show the parent of a compound that is named as a salt.

Row | Structure (SMILES) | melting point [°C]
1 | BrCc1ccc(-c2ccc([P+](c3ccccc3)(c3ccccc3)c3ccccc3)cc2)cc1 (as salt: perchlorate) [(16), 4-(4-bromomethylphenyl)phenyl triphenylphosphonium perchlorate] | 72 to 76
2 | [Br-].c1ccc(P(c2ccccc2)c2cccc([P+](c3ccccc3)(c3ccccc3)c3ccccc3)c2)cc1 | 215 to 220
